# In PubChem BioAssay AID179 (DTP/NCI, 2004):
# “And” between values parts separate entries of the source, which are not always exact repeats. Identical values can stand only once. The source made the active and inactive calls.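 Rule for the calls: active = compounds giving half or more protection of infected cells from virus-caused growth loss, again on retest; inactive = the rest.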
# System: CEM cells HIV-1 protection, formazan growth assay
# Assay: NCI AIDS Antiviral Assay
# Conditions: for IC50: measured here: growth of uninfected CEM cells
# Outline: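 Screen of anti-HIV-1 activity in human CEM cells using a formazan-based growth measurement at five drug concentrations. Hits with 50% or greater protection were repeated, and confirmation required reproducible complete protection.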
SMILES,EC50,IC50,outcome
CCOc1ccccc1/C=C1\NC(=O)NC1=O,> 200 µM,> 200 µM,
Cc1cc(NCCCCCCCNc2cc(C)nc3cc(N)ccc23)c2ccc(N)cc2n1,5.89 µM,8.71 µM,
CS(=O)(=O)Sc1ccc(Cl)cc1,> 132 µM,9.33 µM,
CC(Nc1cc(=O)n(C)c(=O)[nH]1)c1ccccc1 (stereo unspecified),55 µM,> 200 µM,
COc1ccc(-c2cc(=O)c3ccc(O)cc3o2)cc1OC,> 100 µM,24 µM,
COc1ccc(/C(=N/OCCCC(=O)O)c2cccs2)cc1,,,inactive
O=C(O)/C=C/c1c2ccc(=O)c(O)c-2oc2c(O)c(O)ccc12,6.03 µM and 24 µM,151 µM and 162 µM,
COc1ccc(C(Nc2nc3c(ncn3COCCOP(=O)(OCOC(=O)C(C)(C)C)OCOC(=O)C(C)(C)C)c(=O)[nH]2)(c2ccccc2)c2ccccc2)cc1,> 100 µM,8.71 µM,
O=C1C(Cl)N(c2c(Cl)cccc2Cl)C1c1c[nH]c2ccccc12 (stereo unspecified),> 257 µM,115 µM,
CC(C)=CCN1Cc2cccc([N+](=O)[O-])c2NC[C@@H]1C,> 85.1 µM,> 85.1 µM,
O=[N+]([O-])c1c(/C=N/Nc2ccccc2)oc(-c2ccc3c(c2)OCO3)c1-c1ccc2c(c1)OCO2,> 21.4 µM,3.98 µM,
COC12[C@@H]3N[C@@H]3CN1C1=C(C(=O)C(NCCSSCCNC3=C(C)C(=O)C4=C(C3=O)C(COC(N)=O)[C@]3(OC)C5N[C@@H]5CN43)=C(C)C1=O)[C@@H]2COC(N)=O (stereo partly specified),> 200 µM,0.0631 µM,
O=C(CNN1C(=O)CSC1=Nc1cccc2ccccc12)c1cccc2c1Nc1ccccc1S2,,,inactive
CCOc1snc(C(Cl)(Cl)Cl)c1Cl,> 200 µM,> 200 µM,
N#CC(NC12CC3CC(CC(C3)C1)C2)c1ccccc1 (stereo unspecified),,,inactive
NC(=O)CCN(CCC(N)=O)CCC(N)=O,> 200 µM,> 200 µM,
CC1CC2=C(C(=O)O1)C(c1ccccc1)Nc1ccccc1N2 (stereo unspecified),> 427 µM,81.3 µM,
CCCCc1ccc(Nc2nc(Cl)c3[nH]cnc3n2)cc1,> 200 µM,26.3 µM,

SMILES,EC50,IC50,outcome
NC12CC3CC(CC(C3)C1)C2,> 200 µM,> 200 µM,inactive
COC(=O)c1ncn(Cc2ccccc2)c1N,> 200 µM,> 100 µM,
COc1ccc2nc3ccc(OC)cc3c(SCc3ccccc3)c2c1,> 200 µM,> 100 µM,
N#Cc1ccc(CSc2ncnc3nc[nH]c23)cc1,> 200 µM,81.3 µM,
COC(=O)C(CCC1(C)OCCO1)=[N+]=[N-],> 251 µM,> 251 µM,
COc1ccc2c(c1OC)C(=O)N/C2=C\c1c(CCN(C)C)cc2c(c1OC)OCO2,> 200 µM,> 100 µM,
CCOC(=O)c1sc(C(=O)OCC)c2c1-c1cccc3cccc-2c13,> 200 µM,> 200 µM,
Cc1nc2ccc(Cl)cc2c2c1CCS2,> 200 µM,117 µM,
CC1(C)OC2[C@@H](CO[C@@]3([C@@H](O)CCO)OC(C)(C)O[C@@H]23)O1 (stereo partly specified),> 200 µM,> 200 µM,
CCOC(=O)NC1=C(N2CC2)C(=O)C(NC(=O)OCC)=C(N2CC2)C1=O,> 24.5 µM,6.46 µM,
O=C1/C(=C\c2ccc([N+](=O)[O-])cc2)N(S(=O)(=O)c2ccccc2)c2ncccc21,> 200 µM,13.5 µM,
CN(C)c1ccc(N=Nc2cccc3ccoc23)cc1,,,inactive
O=C1c2cccc3cccc(c23)C(=O)N1CCN1C(=O)c2cccc3cccc(c23)C1=O,> 200 µM,30.2 µM,
Nc1ccccc1SC(/C=C/NNC1=NC(c2ccccc2)C(c2ccccc2)=NN1)c1ccccc1 (stereo unspecified),> 100 µM,4.27 µM,
CN(C)c1ccc(/C=C/C=C\C2=CC(=C\C=C/C=C3C=CC(=[N+](C)C)C=C3)/Sc3ccccc32)cc1,> 1.78 µM,> 1.78 µM,
CC(=O)N(CN1C(=O)CCC1C(=O)O)c1cccc(O)c1 (stereo unspecified),,,inactive
O=C(NC1C(=O)NC(CCc2ccccc2)NC1=O)OCc1ccccc1 (stereo unspecified),> 200 µM,> 200 µM,
